The results in this text go back to PubChem BioAssay (NCI).

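Cells were grown in 96-well plates and exposed to each compound for 48 hours at five concentrations; endpoints were interpolated linearly between bracketing concentrations, or set to the highest concentration if not reached. The concentration for 50% growth inhibition is given as GI50. TGI: total growth inhibition.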

Test systems include DLD-1 colon; HOP-18 NSCLC; KM20L2 colon; LXFL 529 NSCLC; M19-MEL melanoma; RXF-631 renal; XF 498 CNS; MDA-MB-435; MDA-N.
Holding throughout (experiment): NCI-60 cell line screen, 48 h

For the compound `NC(=O)c1csc(C2OC(COP(=O)(O)CP(=O)(O)OCC3OC(n4cnc5c(N)ncnc54)C(O)C3O)C(O)C2O)n1` (configuration not stated), the TGI in the experiment with DLD-1 colon, in the experiment with HOP-18 NSCLC, in the experiment with KM20L2 colon, in the experiment with LXFL 529 NSCLC, with M19-MEL melanoma and in the experiment on RXF-631 renal was greater than 100 µM each time. Besides, in the experiment with XF 498 CNS, the TGI was greater than 100 µM.

Turning to `CCCCCCCCCCCCC(Br)C(=O)NCC(N)=O` (configuration not stated), the TGI with DLD-1 colon stood at 29.8 µM; in the experiment with HOP-18 NSCLC, 28.2 µM; with KM20L2 colon, 42.5 µM; in the experiment on LXFL 529 NSCLC, 21.5 µM; in the experiment on M19-MEL melanoma, 32.5 µM; in the experiment with RXF-631 renal it was 18.4 µM. The TGI with XF 498 CNS came out at 3.83 µM.

Consider `Cc1ccc(C)c(N2C(=O)C(=O)C(c3nc4ccccc4s3)/C(=N/NC(=O)NN)C2=O)c1` (configuration not stated), for which the TGI with DLD-1 colon, in the experiment on HOP-18 NSCLC, in the experiment on KM20L2 colon, in the experiment with LXFL 529 NSCLC, in the experiment on M19-MEL melanoma and in the experiment on RXF-631 renal was greater than 100 µM throughout. The compound further returned a TGI in the experiment on XF 498 CNS greater than 100 µM.

With `C=C1CCC2[C@@H](CCC3[C@]2(C)CCC[C@]3(C)C(=O)OC)C1CC=O` (some centres not stated), the TGI in the experiment with DLD-1 colon turned out to be 42.9 µM; in the experiment with HOP-18 NSCLC, 29 µM; with KM20L2 colon it was 35.7 µM; with LXFL 529 NSCLC, 30.1 µM; in the experiment with M19-MEL melanoma, 33.8 µM; with RXF-631 renal, 37.2 µM. This compound also returned a TGI with XF 498 CNS of 28.6 µM. Also, in the experiment with RXF-631 renal, the GI50 is 20.9 µM.

As for `Nc1c([N+](=O)[O-])nc(Cl)c2nncn12`, the TGI with DLD-1 colon, in the experiment on HOP-18 NSCLC, with KM20L2 colon, in the experiment on LXFL 529 NSCLC, with M19-MEL melanoma and in the experiment on RXF-631 renal was greater than 100 µM in each case. The compound further displayed a TGI in the experiment with XF 498 CNS greater than 100 µM.

For `O=C(CC1SC(=Nc2ccccc2Cl)NC1=O)Nc1ccc(Cl)cc1Cl` (configuration not stated), the TGI in the experiment with DLD-1 colon, with HOP-18 NSCLC, with KM20L2 colon, in the experiment on LXFL 529 NSCLC, in the experiment on M19-MEL melanoma and in the experiment on RXF-631 renal was greater than 100 µM in each case. Further, the TGI in the experiment on XF 498 CNS is greater than 100 µM.

As for `C[N+](C)(C)CC1CCCC1=O` (configuration not stated), the TGI with DLD-1 colon stood at 3.15 µM; with HOP-18 NSCLC, 3.3 µM; with KM20L2 colon, 7.79 µM; in the experiment on LXFL 529 NSCLC, 2.57 µM; with M19-MEL melanoma it was 5.52 µM; with MDA-MB-435 it was 3.22 µM. The TGI in the experiment on MDA-N was determined as 3.21 µM; in the experiment on RXF-631 renal it was 32.1 µM; in the experiment on XF 498 CNS, 3.87 µM.
